Source: patent US20200247897A1, “THERAPEUTIC ANTIBODIES BASED ON MUTATED IGG HEXAMERS” (GENMAB B.V., priority 2017, published 2020)

Tested on: colon, pancreatic, gastric, lung and skin cancer cell lines
Test: 3-days CellTiter-Glo viability assay, panel of different human cancer cell lines
Assay type: cell-based
Settings: 133 nM; 11 cell lines (Example 41)

## TRAIL: natural DR5 ligand, recombinant human TRAIL/APO-2L
  killing of human cancer cell lines: show killing of human cancer target cell lines originating from different indications
